Values quoted from earlier work, collected in patent US10632043B2, “Premix formulation for parenteral use and packaging thereof” (Aurobindo Pharma Ltd, priority 2015, dated 2020).
Like-named read-outs stand apart in the source and are kept apart here.

Conditions: for time stable: diluted to 4 mg/mL in 0.9% sodium chloride injection, polypropylene (PP) syringes

Cc1cccc([C@H](C)c2cnc[nH]2)c1C [dexmedetomidine]
loss of drug potency (PP syringe, over 48 hours): about 5% | time stable (5° C.): 14 days | time stable (20-25° C.): 2 days | loss of drug concentration (syringes at room temperature, over 48 hours): < 10% | loss of drug concentration (syringes, refrigerated, over 14 days): < 5%
